Experiment [1] can be described thus: Singlet oxygen quenching. The following applies: 37° C., ethanol/chloroform (50:50), 5 mM NDPO2. The arrangement: key: IA: inactive. How it is done: The singlet oxygen quenching activity was studied in the following manner. Singlet oxygen was generated chemically by using thermodissociation of the endoperoxide 3,3'-(1,4-naphthylidene dipropionate), NPDO2. At 37° C., 3 ml ethanol/chloroform (50:50) were placed in a thermosrated cuvette. Reactions were started by injection of 5 mM NDPO2. The singlet oxygen quenching constants were calculated according to Stern-Volmer plots, from S0 /S=1+(Kq+KR)*[Q}*I, where S0, S--chemiluminesence (1270 nm) intensities in absence and in the presence of quenchers, respectively, [Q} is the quencher concentration and I is the lifetime of singlet oxygen (see J. Amer. Chem., volume 111, pages 2904-2914, (1989)).

Experiment [2] relates to bovine retinal pieces. Description: Cytoprotection / lipid peroxidation (TBARS) in bovine retinal pieces after hypoxia-reoxygenation. The class given is cell-based. On the procedure:
The DPPH assay is a chemical assay used to determine free radical scavenging activity. The retinal pieces, liver microsomes and phospholipid oxidation models measure antioxidant activity. The calcium binding assay is a measure of the affinity of the compound for a calcium antagonist binding site. The test procedures are described in greater detail below. The cytoprotective effects of the compounds were measured using bovine retinal pieces. […] After 50 minutes of hypoxia, test agents were added to the media to allow 10 minutes for the drug to diffuse into the tissue prior to reoxygenation. Vehicle was added to the non-drug group. Following the incubation period, the tissue was reoxygenated for 1 h. Lipid peroxidation was assessed by the formation of thiobarbituric acid reacting substances (TBARS). The tissues were homogenized and added to TCA-TBA reagent and heated in the presence of BHT. The homogenate was filtered and the absorbance of the supernatant was measured spectrophotometrically. A double derivative technique was used to calculate the concentration of TBARS present in each sample. Quantitation was based on molar extinction coefficient of 1.56×10^5.

Experiment [3] has as its system Liver Microsomes. In words: Liver microsome lipid peroxidation assay. In kind it is biochemical. On the procedure:
(§1) The DPPH assay is a chemical assay used to determine free radical scavenging activity. The retinal pieces, liver microsomes and phospholipid oxidation models measure antioxidant activity. The calcium binding assay is a measure of the affinity of the compound for a calcium antagonist binding site. The test procedures are described in greater detail below.
Antioxidant activity was also measured using a liver microsome assay (Chem. Biol. Interactions., volume 74, pages 233-52, (1990)). Microsomes were incubated in a KPi buffer. Lipid oxidation was initiated with ADP(1 mM)/FeCl3 (10 μM) and NADPH regenerating system, containing NADP^+. The lipid peroxidation was assayed by the TBA test. Malondialdehyde (MDA) was estimated by the formation of thiobarbituric acid-reactive substances. MDA-equivalents were calculated using ε=156 mM^- cm^-1. IC50S were calculated using regression lines.
A general note: Liver microsomes are a subcellular fraction often used to study metabolism.

Experiment [4] is described as follows: DPPH free radical scavenging assay. Particulars: 30 min. How it is done: as §1
Free radical scavenging activity was determined by measuring the test compound's ability to quench a ethanol solution of the free radical dye, 1,1-diphenyl-2-picrylhydrazyl, (DPPH). Test agents were dissolved in 95% ethanol and were added to a solution of DPPH in 95% ethanol. The final concentration of both the test compound and DPPH was 0.4 mMol. Absorbance was continuously recorded on a Perkin-Elmer Lamba 4B spectrophotometer. The percent quench was measured thirty minutes following the combination of the two solutions. (Free Rad. Res. Comms., volume 15, pages 91-100 (1991)).

Experiment [5] is described as follows: Phospholipid oxidation assay in liposomes. The class given is biochemical. How it is done:
as §1
Antioxidant activity was measured using a phospholipid oxidation assay. Liposomes formed from dilineoleolyl phosphocholine were exposed to Fe^+3 /EDTA (167 μM) and ascorbate (167 μM). Oxidation was measured by conjugate diene formation monitored using UV spectroscopy (Biochim. Biophys. Acta., volume 1081, pages 181-187, (1991)). The IC50 was calculated using the following non-linear regression algorithm: Y=A/[1+(B/X)^c ], wherein A=maximum, B=IC50 and c=cooperativity or relative broadness of the curves. The minimum was assumed to be zero.

For experiment [6] the following is noted: value from Free Rad. Res. Comms., volume 15, pages 91-100 (1991); cited from earlier work.
Experiment [7] deals with calcium antagonist binding site. Description: Calcium binding, radioligand (nitrendipine) binding assay in rat brain cortices. Particulars: radiolabeled nitrendipine. On the procedure: as §1
Calcium binding was measured using a radioligand binding assay. Brain cortices were removed from rats and a membrane fraction was prepared by standard techniques. The membrane preparation was incubated with radiolabeled nitrendipine. Non-specific binding was estimated in the presence of non-labeled nitrendipine. Membranes were filtered and washed and the filters were counted to determine radiolabelled […] Acad. Sci. USA, volume 79, pages 3656-3660 (1982), Life Sci., volume 30, pages 2191-2202, (1982).

In experiment [8] the test system is retina of albino rats. Description: Retinal light damage model (photochemical lesions, histology). In kind it is in vivo, rat. Particulars: intraperitoneal, 48 h light exposure. How it is done: (§2) The retinoprotective properties of the compounds were measured in a light damage model. Photochemical lesions were induced in free moving unanesthetized albino rats by a single 48 h continuous broad-band florescent visible-light exposure. The rats were dosed by intraperitoneal injection 48 and 24 h prior to exposure, every 24 h during the exposure and once during the 24 h recovery period. Ocular tissues were obtained 24 h after light exposure. The tissues were analyzed using a quantitative computer image analyses system attached to the microscope. Retinal layer thickness, number of macrophages in the subretinal space, number of pyknotic nuclei in the outer nuclear layer, and retinal layer areas were parameters that were measured and statistically analyzed.
Control rats remaining on their normal 12 h light/12 h dark light cycle were devoid of retinal lesions upon microscopic examination and were assessed to have normal retinal function. […] The number of pyknotic photoreceptor nuclei was reduced by 50% in the outer nuclear layer compared to non-dosed animals.

Experiment [9] deals with retinal function of rats. In words: Ocular function by electroretinography after light exposure. The class given is in vivo, rat. Particulars: ERG a-wave and b-wave after 48 h light exposure. On the procedure: as §2
Ocular function was measured using electroretinography. Rats were anesthetized after a four-day recovery period in the dark. Flash ERGs were elicited by viewing a ganzfield. Electrical responses to a series of light flashes increasing in intensity were digitized to analyze response voltage-log intensity relationships.
Retinal function was assessed by measuring the electroretinogram after 48 h light exposure. The ERG allows differential examination of photoreceptor activity (a-wave) and inner nuclear layer function (b-wave) which is correlated to retinal morphology change.

Setting [10] is: Bos taurus, Summary of Activity table, bovine retinal pieces.
The mark [11] stands for this setting: ADP (1 mM)/FeCl3 (10 μM), NADPH regenerating system, TBA test.
Setting [12] is: Summary of Activity table, test compound and DPPH 0.4 mMol.
Where [13] appears, read: test compound and DPPH 0.4 mMol in 95% ethanol, thirty minutes.
[14] abbreviates: Fe^+3/EDTA (167 μM) and ascorbate (167 μM), conjugate diene formation, read-out: Phospholipid Oxidation IC50.
Setting [15] is: Summary of Activity table, read-out: Phosopholipid Oxidation IC50.
[16] abbreviates: Summary of Activity table, rat brain cortices, read-out: Ca+2 Binding IC50.
The mark [17] stands for this setting: rat brain cortices membrane, read-out: Ca^+2 Binding IC50.

Each structure is given as a SMILES string. Like-named read-outs stand apart in the source and are kept apart here.

What is called IC50 is the concentration needed to halve the response being measured.

Regarding `Cc1cc(C(C)(C)C)c(O)c(C(C)(C)C)c1` [BHT], the “Singlet Oxygen Quenching Kq” value in experiment [1] is “IA”. For the same compound, the half-maximal inhibitory concentration (IC50) in [2] (setting [10]) came to 0.5 µM; in experiment [3] (setting [11]) it was 1.1 µM; in experiment [3] (Summary of Activity table), 1.1 µM; in [5] (setting [14]), 201 µM; in experiment [5] (setting [15]) it was 201 µM. The DPPH (% Quench) in experiment [4] (setting [12]) and in [4] (setting [13]) was 64% in each case.

As to `Cc1c(C)c2c(c(C)c1O)CC[C@@](C)(CCC[C@H](C)CCC[C@H](C)CCCC(C)C)O2` [Vitamin E, α-tocopherol], the “Singlet Oxygen Quenching Kq” value in experiment [1] came out at 1.2e+08 M⁻¹ s⁻¹. Besides, the concentration for half-maximal inhibition (IC50) in experiment [2] (Summary of Activity table, bovine retinal pieces) worked out at 0.001 µM; in [2] (bovine retina, hypoxia 1 h, agent added after 50 minutes, reoxygenation 1 h, TBARS) it was 0.001 µM; in experiment [3] (setting [11]), 37 µM; in experiment [3] (Summary of Activity table), 37 µM; in experiment [5] (setting [14]), 4.2 µM; in experiment [5] (setting [15]) it was 4.2 µM. Moreover, the DPPH (% Quench) in experiment [4] (setting [12]) and in experiment [4] (setting [13]) was 87% in each case. In addition, the “DPPH (% Quench), literature value” in [6] is on record as 90%.

For `Fc1ccc(C(c2ccc(F)cc2)N2CCN(C/C=C/c3ccccc3)CC2)cc1` [Flunarizine], in [1], the “Singlet Oxygen Quenching Kq” value turned out to be 5e+06 M⁻¹ s⁻¹. The IC50 in experiment [3] (setting [11]) and in experiment [3] (Summary of Activity table) was 27.1 µM each time. Moreover, in [6], the “DPPH (% Quench), literature value” is 10%.

As for `Cc1c(C)c2c(c(C)c1O)CCC(C)(CN1CCN(C(c3ccc(F)cc3)c3ccc(F)cc3)CC1)O2` (stereo not drawn) [Compound No. 2, 1-(4,4'-difluorobenzhydryl)-4-(6-hydroxy-2,5,6,8-tetramethylchroman-2-methyl)piperazine dimaleate hemihydrate], the “Singlet Oxygen Quenching Kq” value in experiment [1] came out at 1.6e+08 M⁻¹ s⁻¹. Moreover, the IC50 in [2] (setting [10]) is 0.05 µM; in [7] (setting [16]), 1 to 10 µM; in [7] (setting [17]), 1 to 10 µM; in experiment [5] (setting [14]), 0.18 µM. Moreover, the DPPH (% Quench) in [4] (setting [12]) and in [4] (setting [13]) was 96% each time.

As to `Cc1c(C)c2c(c(C)c1O)CCC(C)(CCN1CCN(C(c3ccc(F)cc3)c3ccc(F)cc3)CC1)O2` (stereo not drawn) [Compound No. 1, 1-(4,4'-difluorobenzhydryl)-4-(6-hydroxy-2,5,7,8-tetramethylchroman-2-ethyl)piperazine], the “Damage to photoreceptor cells” value in experiment [8] is “significantly minimized”. Moreover, the RPE damage result in experiment [8] is “greatly reduced”. In addition, the “outer and inner segment damage (photoreceptor length)” value in [8] was “prevented outer and inner segment damage”. Moreover, the “reduction of number of pyknotic photoreceptor nuclei in the outer nuclear layer” value in experiment [8] (compared to non-dosed animals) is recorded as 50%. In addition, the “Macrophages in the subretinal space, compared to control values” in experiment [8] (vs control values) is recorded as “not greater than control values”. In addition, in experiment [8] (vs non-dosed light exposed rats), the “Macrophages in the subretinal space, compared to non-dosed light exposed rats” value is recorded as “significantly reduced”. Moreover, the concentration for half-maximal inhibition (IC50) in experiment [2] (setting [10]) was 0.01 µM; in experiment [3] (setting [11]) it was 1 µM; in experiment [3] (Summary of Activity table), 1 µM; in [7] (setting [16]) it was 1 to 10 µM; in experiment [7] (setting [17]), 1 to 10 µM; in experiment [5] (setting [14]) it was 3.6 µM. Also, the concentration for half-maximal inhibition (IC50) in experiment [5] (setting [15]) was 3.6 µM. The DPPH (% Quench) in [4] (setting [12]) and in [4] (setting [13]) was 99% each time. In experiment [9], the “preservation of retinal function (electroretinogram)” value was “Significant preservation of retinal function”.

These data come from US5646149A, “Compounds having both potent calcium antagonist and antioxidant activity and use thereof as cytoprotective agents” (Alcon Laboratories, Inc., priority 1995, dated 1997).
